# Reference: PMC3813140, “Lipophilicity Examination of Some ACE inhibitors andHydrochlorothiazide on Cellulose in RP Thin-Layer Chromatography” (Iranian Journal of Pharmaceutical Research : IJPR, 2012)
# Assay: RP-TLC on cellulose layers, lipophilicity evaluation with water-organic modifier binary solvent systems
# Assay type: physicochemical
# Details: for relative lipophilicity among the investigated substances: RP-TLC on cellulose, all mobile phases; for hRF / - m (slope, specific hydrophobic surface area) / C0 (hydrophobicity parameter, C0 = - RM0/m) / RM0 (intercept, hydrophobicity parameter): cellulose; for - m (slope, specific hydrophobic surface area) / C0 (hydrophobicity parameter, C0 = - RM0/m) / RM0 (intercept, hydrophobicity parameter): organic modifier 10-30%
# Method: The three, water-organic modifier, binary solvent systems were used with different volume fractions. All components of mobile phases were of analytical grade of purity.
# The TLC experiments were performed on 10 cm × 10 cm cellulose (Art. 105552, Merck, Germany) layers.
# After the development, the detection was performed by exposing the plates to iodine vapour. All investigations were performed at room temperature (22 ± 2 °C).
# The RF -values were calculated according to the relationship:
# RF = Distance of spot from origin / Distance of mobile phase front from origin
# Here, RM-values were calculated for each solute in each mobile phase according to the Bate-Smith and Westall equation ([29]):
# RM=log (1/RF-1) (Equation 1)
# In an aim to establish the reversed-phase TLC on cellulose, the mobile phase had to be more polar than the cellulose.
# The retention behavior of biological active substances investigated in RP-TLC can be presented as the relationship between the RM-values and the content of organic modifier in mobile phase through the linear Equation ([16]):
# RM = R^0M + mC (Equation 2)
# The value of the intercept, R^0M, represents the lipophilicity of the examined substance and the value of the slope, m, corresponds to the specific hydrophobic surface area of this substance, while C represents the volume fraction of the organic modifier in mobile phase.
# By the analogy through the hydrophobicity parameter of φ0 ([6], [7]), previously defined for the HPLC method as the concentration of the organic modifier in the mobile phase for which the distribution of the analyzed substance between the mobile and stationary phase was equal (1:1) another hydrophobicity parameter, C0, can be calculated. The hydrophobicity parameter, C0, represents the volume fraction of the organic modifier in mobile phase where RM = 0 ([11]-[12]) and it can be calculated as C0 = - R^0M / m.
# [1] = water-acetone, 10 vol% organic modifier
# [2] = water-acetone, 15 vol% organic modifier
# [3] = water-acetone, 20 vol% organic modifier
# [4] = water-acetone, 25 vol% organic modifier
# [5] = water-acetone, 30 vol% organic modifier
# [6] = water-ethanol, 10 vol% organic modifier
# [7] = water-ethanol, 15 vol% organic modifier
# [8] = water-ethanol, 20 vol% organic modifier
# [9] = water-ethanol, 25 vol% organic modifier
# [10] = water-ethanol, 30 vol% organic modifier
# [11] = water-methanol, 10 vol% organic modifier
# [12] = water-methanol, 15 vol% organic modifier
# [13] = water-methanol, 20 vol% organic modifier
# [14] = water-methanol, 25 vol% organic modifier
# [15] = water-methanol, 30 vol% organic modifier
Compound,relative lipophilicity among the investigated substances,hRF [1],hRF [2],hRF [3],hRF [4],hRF [5],"- m (slope, specific hydrophobic surface area) (water-acetone)",hRF [6],hRF [7],hRF [8],hRF [9],hRF [10],"- m (slope, specific hydrophobic surface area) (water-ethanol)",hRF [11],hRF [12],hRF [13],hRF [14],hRF [15],"- m (slope, specific hydrophobic surface area) (water-methanol)","C0 (hydrophobicity parameter, C0 = - RM0/m) (water-methanol)",further results
"CCOC(=O)[C@H](CCc1ccccc1)N[C@@H](C)C(=O)N1Cc2ccccc2C[C@H]1C(=O)O [Substance 2, [3S-[2[R* (R*)],3R*]]-2-[2-[[1-(ethoxycarbonyl)-3-phenylpropyl]amino]-1-oxopropyl]-1,2,3,4-tetrahydro-3-isoquinolinecarboxylic acid]",most lipophilic,55,60,66,70,73,1.763 ± 0.001,65,70,74,79,82,1.974 ± 0.001,53,58,65,68,71,1.721 ± 0.001,0.063,"C0 (hydrophobicity parameter, C0 = - RM0/m) (water-acetone): 0.047; RM0 (intercept, hydrophobicity parameter) (water-acetone): 0.082 ± 0.020; RM0 (intercept, hydrophobicity parameter) (water-methanol): 0.109 ± 0.032"
"NS(=O)(=O)c1cc2c(cc1Cl)NCNS2(=O)=O [HCTZ, 6-chloro-3,4-dihydro-2H-1,2,4-benzothiadiazine-7-sulfonamide,1,1-dioxide]",–,83,85,88,92,95,2.975 ± 0.004,85,87,90,93,95,2.697 ± 0.002,80,83,85,90,92,2.366 ± 0.023,–,–
"CCOC(=O)C(CCc1ccccc1)N[C@@H](C)C(=O)N1CCC[C@H]1C(=O)O (stereo partly drawn) [Substance 1, (S)-1-[N-[1-(ethoxycarbonyl)-3-phenylpropyl]-L-alanyl]-L-proline]",–,78,84,86,89,93,2.671 ± 0.002,81,85,90,92,93,2.589 ± 0.002,78,80,83,86,88,1.635 ± 0.001,–,–
"NCCCC[C@H](NC(CCc1ccccc1)C(=O)O)C(=O)N1CCC[C@H]1C(=O)O.O.O (stereo partly drawn) [Substance 3, (S)-1-[N^2-(1-carboxy-3-phenylpropyl)-L-lysyl]-L-proline dihydrate]",most hydrophilic,86,90,92,94,96,2.849 ± 0.001,91,93,95,96,97,2.533 ± 0.001,85,88,91,92,93,1.871 ± 0.002,–,–
"CCOC(=O)[C@H](CCc1ccccc1)N[C@H]1CCCN2CCC[C@@H](C(=O)O)N2C1=O [Substance 4, [1S-[1α,9α (R*)]]-9-[[1-(ethoxycarbonyl)-3-phenylpropyl]amino] octahydro-10-oxo-6H-pyridazino [1,2-a] [1,2] diazepine-1-carboxylic acid monohydrate]",–,66,70,73,77,80,1.569 ± 0.001,73,76,79,83,88,2.109 ± 0.002,60,68,75,80,85,2.858 ± 0.001,0.036,"RM0 (intercept, hydrophobicity parameter) (water-methanol): 0.104 ± 0.010"
